These results are taken from patent US11802111B2, “Cyclobutyl amide monoacylglycerol lipase modulators” (Janssen Pharmaceutica NV, priority 2020, dated 2023).

Chain of human MGL from HeLa cells (Q99685 whole entry): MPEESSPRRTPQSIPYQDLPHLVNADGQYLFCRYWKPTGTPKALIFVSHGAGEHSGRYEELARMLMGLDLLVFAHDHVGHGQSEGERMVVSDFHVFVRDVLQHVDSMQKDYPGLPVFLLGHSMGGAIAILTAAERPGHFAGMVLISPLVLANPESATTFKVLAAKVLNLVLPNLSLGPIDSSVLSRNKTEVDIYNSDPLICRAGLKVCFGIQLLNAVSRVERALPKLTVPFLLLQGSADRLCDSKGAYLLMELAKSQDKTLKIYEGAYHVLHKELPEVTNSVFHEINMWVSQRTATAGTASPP

The assay deals with human MGL from HeLa cells (Homo sapiens (Human), UniProt Q99685). As to the kind of experiment: MGL in vitro activity assay ([glycerol-1,3-3H]-oleoyl glycerol hydrolysis, activated carbon filtration). In kind it is biochemical. Conditions: 300 nM [Glycerol-1,3-3H]-oleoyl glycerol, one hour. The protocol:
The assay used to measure the in vitro activity of MGL is adapted from the assay used for another serine hydrolase (FAAH) described in Wilson et al., 2003 (A high-throughput-compatible assay for determining the activity of fatty acid amide hydrolase. Wilson S J, Lovenberg T W, Barbier A J. Anal Biochem. 2003 Jul. 15; 318(2):270-5). The assay consists of combining endogenously expressed MGL from HeLa cells with test compounds, adding [glycerol-1,3-^3H]-oleyl glycerol, incubating for one hour, and then measuring the amount of cleaved [1,3-^3H]-glycerol that passes through an activated carbon filter. The amount of cleaved, tritiated glycerol passing through the carbon filter is proportional to the activity of the MGL enzyme in a particular well/test condition.
Standard conditions for this assay combine 300 nM [Glycerol-1,3-^3H]-oleoyl glycerol with human MGL from HeLa cells and test compounds for one hour, after which the reaction is filtered through activated carbon and tritium is measured in the flow through. The test compound concentration in screening mode is 10 μM, while the highest compound concentration in IC50 assays is determined empirically. MGL is the predominant hydrolase in HeLa cells/cell homogenates.
`Cn1ncc2cc(C3CCC4(C3)CN(C(=O)[C@H]3C[C@@](C)(O)C3)C4)ccc21` (mixture of isomers) [Example 102, (rac)-((1s,3s)-3-Hydroxy-3-methylcyclobutyl)(6-(1-methyl-1H-indazol-5-yl)-2-azaspiro[3.4]octan-2-yl)methanone] showed an IC50 of 0.301 µM. For `Cc1ccc(C2CCC3(C2)CN(C(=O)[C@H]2C[C@@](C)(O)C2)C3)cc1OC(F)(F)F` (mixture of isomers) [Example 107, (rac)-((1s,3s)-3-Hydroxy-3-methylcyclobutyl)(6-(4-methyl-3-(trifluoromethoxy)phenyl)-2-azaspiro[3.4]octan-2-yl)methanone], the IC50 was 0.0074 µM. `C[C@]1(O)C[C@@H](C(=O)N2CC3(CCC(c4ccc(F)c(C5CC5)c4)C3)C2)C1` (mixture of isomers) [Example 108, (rac)-(6-(3-Cyclopropyl-4-fluorophenyl)-2-azaspiro[3.4]octan-2-yl)((1s,3s)-3-hydroxy-3-methylcyclobutyl)methanone] showed an IC50 of 0.014 µM. The value for `Cn1ncc(C2CCC3(C2)CN(C(=O)[C@H]2C[C@@](C)(O)C2)C3)c1C(F)(F)F` (mixture of isomers) [Example 109, (rac)-((1s,3s)-3-Hydroxy-3-methylcyclobutyl)(6-(1-methyl-5-(trifluoromethyl)-1H-pyrazol-4-yl)-2-azaspiro[3.4]octan-2-yl)methanone] was 0.899 µM; that for `C[C@]1(O)C[C@@H](C(=O)N2CC3(CCC(c4cccc(C(F)(F)F)n4)C3)C2)C1` (mixture of isomers) [Example 110, (rac)-((1s,3s)-3-Hydroxy-3-methylcyclobutyl)(6-(6-(trifluoromethyl)pyridin-2-yl)-2-azaspiro[3.4]octan-2-yl)methanone] was 0.435 µM; that for `Cn1cnc2cc(C3CCC4(C3)CN(C(=O)[C@H]3C[C@@](C)(O)C3)C4)ccc21` (mixture of isomers) [Example 111, (rac)-((1s,3s)-3-Hydroxy-3-methylcyclobutyl)(6-(1-methyl-1H-benzo[d]imidazol-5-yl)-2-azaspiro[3.4]octan-2-yl)methanone] was 0.949 µM. As to `Cn1c(C2CCC3(C2)CN(C(=O)[C@H]2C[C@@](C)(O)C2)C3)nc2ccccc21` (mixture of isomers) [Example 112, (rac)-((1s,3s)-3-Hydroxy-3-methylcyclobutyl)(6-(1-methyl-1H-benzo[d]imidazol-2-yl)-2-azaspiro[3.4]octan-2-yl)methanone], the IC50 came to 5.53 µM. In the case of `CC(C)c1cc(F)cc(C2CCC3(C2)CN(C(=O)[C@H]2C[C@@](C)(O)C2)C3)c1` (mixture of isomers) [Example 125, (rac)-(6-(3-Fluoro-5-isopropylphenyl)-2-azaspiro[3.4]octan-2-yl)((1s,3s)-3-hydroxy-3-methylcyclobutyl)methanone], the IC50 was 0.0083 µM. The result for `CC[C@]1(O)C[C@@H](C(=O)N2CC3(CCC(c4cccc(C(C)(C)C)c4)C3)C2)C1` (mixture of isomers) [Example 126, (rac)-(6-(3-(tert-Butyl)phenyl)-2-azaspiro[3.4]octan-2-yl)((1r,3s)-3-ethyl-3-hydroxycyclobutyl)methanone] reads 0.0075 µM; that for `C[C@]1(O)C[C@@H](C(=O)N2CCC3(CCC(c4ccc(C(F)(F)F)cc4)C3)CC2)C1` (mixture of isomers) [Example 152, (rac)-((1s,3s)-3-Hydroxy-3-methylcyclobutyl)(2-(4-(trifluoromethyl)phenyl)-8-azaspiro[4.5]decan-8-yl)methanone], 0.0033 µM; that for `Cc1ccc(CC2CCC3(C2)CN(C(=O)[C@H]2C[C@@](C)(O)C2)C3)cc1` (mixture of isomers) [Example 169, (rac)-((1s,3s)-3-Hydroxy-3-methylcyclobutyl)(6-(4-methylbenzyl)-2-azaspiro[3.4]octan-2-yl)methanone], 0.036 µM. The value for `CC(C)c1ccc(CC2CCC3(C2)CN(C(=O)[C@H]2C[C@@](C)(O)C2)C3)cc1` (mixture of isomers) [Example 170, (rac)-((1s,3s)-3-Hydroxy-3-methylcyclobutyl)(6-(4-isopropylbenzyl)-2-azaspiro[3.4]octan-2-yl)methanone] was 0.01 µM; that for `C[C@]1(O)C[C@@H](C(=O)N2CC3(CCC(Cc4ccc(C(F)(F)F)cc4)C3)C2)C1` (mixture of isomers) [Example 171, (rac)-((1s,3s)-3-Hydroxy-3-methylcyclobutyl)(6-(4-(trifluoromethyl)benzyl)-2-azaspiro[3.4]octan-2-yl)methanone] was 0.0068 µM. `Cc1cccc(CC2CCC3(C2)CN(C(=O)[C@H]2C[C@@](C)(O)C2)C3)c1` (mixture of isomers) [Example 174, (rac)-((1s,3s)-3-Hydroxy-3-methylcyclobutyl)(6-(3-methylbenzyl)-2-azaspiro[3.4]octan-2-yl)methanone] showed an IC50 of 0.023 µM. The result for `Cc1ccccc1CC1CCC2(C1)CN(C(=O)[C@H]1C[C@@](C)(O)C1)C2` (mixture of isomers) [Example 175, (rac)-((1s,3s)-3-Hydroxy-3-methylcyclobutyl)(6-(2-methylbenzyl)-2-azaspiro[3.4]octan-2-yl)methanone] reads 0.043 µM. The result for `C[C@]1(O)C[C@@H](C(=O)N2CC3(CCC(Cc4cccc(C(F)(F)F)c4)C3)C2)C1` (mixture of isomers) [Example 176, (rac)-((1s,3s)-3-Hydroxy-3-methylcyclobutyl)(6-(3-(trifluoromethyl)benzyl)-2-azaspiro[3.4]octan-2-yl)methanone] reads 0.011 µM; that for `C[C@]1(O)C[C@@H](C(=O)N2CC3(CC[C@@H](Cc4ccc(OC(F)(F)F)cc4)C3)C2)C1` (racemic) [Example 179, (rac)-((1s,3s)-3-Hydroxy-3-methylcyclobutyl)(6-(4-(trifluoromethoxy)benzyl)-2-azaspiro[3.4]octan-2-yl)methanone], 0.0057 µM. For `C[C@]1(O)C[C@@H](C(=O)N2CC3(CC[C@@H](Cc4cccc(OC(F)(F)F)c4)C3)C2)C1` (racemic) [Example 180, (rac)-((1s,3s)-3-Hydroxy-3-methylcyclobutyl)(6-(3-(trifluoromethoxy)benzyl)-2-azaspiro[3.4]octan-2-yl)methanone], the IC50 was 0.0083 µM.

`CC(C)c1cccc(C[C@@H]2CCC3(C2)CN(C(=O)[C@H]2C[C@@](C)(O)C2)C3)c1` (racemic) [Example 181, (rac)-((1s,3s)-3-Hydroxy-3-methylcyclobutyl)(6-(3-isopropylbenzyl)-2-azaspiro[3.4]octan-2-yl)methanone] displayed an IC50 of 0.0046 µM. In turn, `C[C@]1(O)C[C@@H](C(=O)N2CC3(CCC(Cc4ccc(C(F)F)cc4)C3)C2)C1` (mixture of isomers) [Example 182, (rac)-(6-(4-(Difluoromethyl)benzyl)-2-azaspiro[3.4]octan-2-yl)((1s,3s)-3-hydroxy-3-methylcyclobutyl)methanone] showed an IC50 of 0.034 µM. Regarding `C[C@]1(O)C[C@@H](C(=O)N2CC3(CCC(Cc4ccc(OC(F)F)cc4)C3)C2)C1` (mixture of isomers) [Example 183, (rac)-(6-(4-(Difluoromethoxy)benzyl)-2-azaspiro[3.4]octan-2-yl)((1s,3s)-3-hydroxy-3-methylcyclobutyl)methanone], it took 0.048 µM to reach half-maximal inhibition (IC50). The value for `C[C@]1(O)C[C@@H](C(=O)N2CC3(CCC(Cc4ccc(C5CC5)cc4)C3)C2)C1` (mixture of isomers) [Example 200, (rac)-(6-(4-Cyclopropylbenzyl)-2-azaspiro[3.4]octan-2-yl)((1s,3s)-3-hydroxy-3-methylcyclobutyl)methanone] was 0.0069 µM. The value for `C[C@]1(O)C[C@@H](C(=O)N2CC3(CCC(Cc4cccc(C5CC5)c4)C3)C2)C1` (mixture of isomers) [Example 201, (rac)-(6-(3-Cyclopropylbenzyl)-2-azaspiro[3.4]octan-2-yl)((1s,3s)-3-hydroxy-3-methylcyclobutyl)methanone] was 0.0099 µM; that for `Cc1cc(C(F)(F)F)ccc1CC1CCC2(C1)CN(C(=O)[C@H]1C[C@@](C)(O)C1)C2` (mixture of isomers) [Example 203, (rac)-((1s,3s)-3-Hydroxy-3-methylcyclobutyl)(6-(2-methyl-4-(trifluoromethyl)benzyl)-2-azaspiro[3.4]octan-2-yl)methanone] was 0.0078 µM; that for `Cc1cc(CC2CCC3(C2)CN(C(=O)[C@H]2C[C@@](C)(O)C2)C3)ccc1C(F)(F)F` (mixture of isomers) [Example 204, (rac)-((1s,3s)-3-Hydroxy-3-methylcyclobutyl)(6-(3-methyl-4-(trifluoromethyl)benzyl)-2-azaspiro[3.4]octan-2-yl)methanone] was 0.0039 µM. `COc1ccc(CC2CCC3(C2)CN(C(=O)[C@H]2C[C@@](C)(O)C2)C3)cc1` (mixture of isomers) [Example 205, (rac)-((1s,3s)-3-Hydroxy-3-methylcyclobutyl)(6-(4-methoxybenzyl)-2-azaspiro[3.4]octan-2-yl)methanone] gave an IC50 of 0.076 µM.

As for `C[C@]1(O)C[C@@H](C(=O)N2CC3(CCC(Cc4ccccc4)C3)C2)C1` (mixture of isomers) [Example 234, (rac)-(6-Benzyl-2-azaspiro[3.4]octan-2-yl)((1s,3s)-3-hydroxy-3-methylcyclobutyl)methanone], 0.098 µM corresponded to half-maximal inhibition (IC50).

The compound `CC(C)(C)c1ccc(OC2CCC3(C2)CN(C(=O)[C@H]2C[C@@](C)(O)C2)C3)cc1` (mixture of isomers) [Example 240, (rac)-(6-(4-(tert-Butyl)phenoxy)-2-azaspiro[3.4]octan-2-yl)((1s,3s)-3-hydroxy-3-methylcyclobutyl)methanone] gave an IC50 of 0.122 µM.
